Measured values: patent EP1228058B1, “BENZOPYRANYL GUANIDINE DERIVATIVES, PROCESS FOR PREPARATION THEREOF, AND PHARMACEUTICAL COMPOSITIONS CONTAINING THEM” (Dongbu Hannong Chemical Co., Ltd., priority 1999, dated 2001)
Values joined by “and” are separate entries in the source; they are usually repeats but may differ in a detail not shown here. Identical values can stand only once. Like-named read-outs stand apart in the source and are kept apart here.

Columns and labels:
[1] = system: newborn rats; test: Protection against hypoxic brain injury in newborn rats (proton MRS); format: in vivo; conditions: 50mg/Kg intraperitoneally 1 hr before hypoxia; proton MRS 1 day after injury
Source text: Focal, hypoxic brain injury model in newborn rats are being most frequently used to study infant asphyxia, because whose maturity of brain is similar to that of human infant, and it is easy to get enough number of animals required for the determination of effects. It was reported that the lipid peak was increased in MRS (magnetic resonamce spectroscopy) by ischemic neuronal cell injury due to the destruction of cell membrane including blood-brain barrier [A. Bizzi et. al., Magnetic Resonance Imagin 14 581-592 (1996)], and also the concentration of lipid and apotosis are closely correlated to apotosis [Van der A. Toorn et al., Magnetic Resonamce in Medicine, 36 , 914-922 (1996)]. N-Acetylaspartae (NAA) and creatine (Cr) are markers of neuronal cells. Then it was confirmed that the value of lipid/NAA (N-acetylaspartae) and lipid/Cr (creatine) are correlated with the morphological change and severity of apoptosis on hypoxic brain damage.
New born rats (within 7 days, 10-15 g) were placed in hypoxic chamber for 2 hr to induce hypoxia, and test compounds were intraperitoneally injected before 1 hr of hypoxia. Proton MRS was obtained at 1 day after brain injury, then the value of lipid/NAA and lipid/Cr were determined.

[2] = system: HUVEC; test: Inhibition of intracellular ROS induced by H2O2 (H2DCFDA) in HUVEC; format: cell-based, Human; conditions: Homo sapiens; for inhibition at 10 µM: Conc. 10^-5 M; for inhibition at 1 µM: Conc. 10^-6 M; for inhibition at 0.1 µM: Conc. 10^-7 M
Protocol: Measurement of intracellular ROS (Reactive Oxygen Species) was determined using H2DCFDA (2',7'-dichlorodihydrofluorescein diacetate, Molecular Probes, Eugene, OR, USA). H2DCFDA is a non-polar compound that readily diffused into cells, where it is hydrolyzed by intracellular esterase to polar derivative H2DCF (2',7'-dichlorodihydrofluorescein) which can not cross the cell membrane, and thereby trapped within the cell. H2DCF is low-fluorescent, but converted to high-fluorescent DCF (2',7'-dichlorofluorescein) by intracellular ROS. Therefore, the intracellular ROS formation can be determined from the amount of converted DCF. HUVEC (Human umbilical Vascular Endothelial Cells) or A7r5 (Rat thoracic aorta smooth muscle cells) were used. HUVEC were cultured in Kaighn's F12K medium supplemented with 10% heat-inactivated FBS, 0.1 mg/ml heparin sodium, 0.03-0.05 mg/ml ECGS (Endothelial cell growth supplement) and 1% antibiotics, and A7r5 were cultured in DMEM supplemented with 10% heat inactivated FBS and 1% antibiotics. To measure the intracellular ROS, HUVEC or A7r5 were preincubated for 30 min in the presence of test compounds (10^-7-10^-5 M). Thereafter, cells were stimulated with H2O2 (10^-6 and 10^-5 M for 20 min), and then incubated in the dark for 2 hr at 37 °C in 50 mM phosphate buffer (pH 7.4) containing 5 uM H2DCFDA. The quantity of DCF fluorescence (485 nm excitation, 530 nm emission) was measured using Fluorescence plate reader (FL600, Biotek Instruments).

[3] = system: brain ischemia-reperfusion in Sprague-Dawley rats; test: Protection against brain damage induced by brain ischemia-reperfusion
Protocol: Male Sprague-Dawley rats (350±50 g, SamYook Experimental Animals Co., Korea) were anesthetized by the injection of pentobarbital sodium at a dose of 40 mg/kg, after which the femoral vein and the artery were cannulated with PE-10 while the left carotid artery was exposed. Five min. before the operation, 20 ug/kg of heparin sulfate was injected into the peritoneal cavity. For the continuous measurement of arterial pressure, with a insertion of a blood pressure measuring device into the femoral artery. About 10 ml of blood was taken from the femoral vein to reduce the blood pressure down to 30 mmHg. If the blood pressure is not reduced to less than 100 mmHg with a withdrawal of 7 ml of blood, the rats are considered to have high sympathetic tone.
While the blood pressure was maintained at 30 mmHg, the exposed left carotid artery was occluded for 20 min by an aneurysm clamp to cause cerebral ischemia. Then, the carotid clamps were removed and the extracted blood was reinfused. To minimize the systemic acidosis, the rats were reinfused with 5 ml of saline containing 0.84% bicarbonate sodium (bicarbonate saline). During operation and restoration period, body temperature was maintained at 37±0.5 °C with the aid of a thermal blanket and incandescent light bulbs. During their restoration from the operation, the body temperature was kept constant for 2 hours or more. […]
24 hours after the operation, the rats were sacrificed with a scaffold and the brain was removed rapidly (3 min). […] After photographs were taken of the stained sections, developed and printed, the percentages of the infarcted brain areas to the total brain were measured and analyzed using an image analyzing program (Image-Pro Plus ver. 3.0.1). […]
The protective effects of the test compounds on the brain damage caused by brain ischemia-reperfusion were expressed as a reduction percentages of infarcted brain areas compared with those of the control group.

[4] = system: diabetic rats; test: Effects on MNCV (motor nerve conduction velocity) in diabetic rats; format: in vivo; set-up: MNCV (sec): unit not given here; conditions: 30 mg/Kg, orally once a day
Protocol: Diabetes was induced with i.p. (intra peritoneum) injection of streptozocin (65 mg/Kg) in rats, then test compounds dissolved in 2 ml of media (physiological saline: ethanol: tween 80 = 8:1:1), were orally administered once a day. Rats were anesthetized with halothane, then the sciatic nerve was exposed to measure MNCV. The nerve was stimulated at two points. The first stimulus electrode was inserted at proximal end, and second stimulating electrode was inserted at the sciatic notch. The coaxial needle electrode was inserted into interdigital muscle, then the muscle action potential induced by two point stimulation. The conduction velocity was calculated by dividing the distance between two stimulus points by the latency difference. Lipoic acid (100 mg/Kg) was used in comparison with the compound of formula 1 in recovery of impaired MNCV in diabetic rats. The recovery (%) of MNCV was calculated according to the following mathematical formula 4. [Mathematical formula 4] Recovery(%) =(MNCV of treated group - MNCV of diabetic rats)/(MNCV of normal control-MNCV of diabetic rats)x100 [formula]

[5] = read-out: Inhibition (%) H2O2 (10^-5M)
[6] = read-out: Inhibition (%) H2O2 (10^-6M)

COC(OC)[C@@]1(C)Oc2ccc(N)cc2[C@@H](NC(=NC#N)NCc2ccccc2)[C@@H]1O [Example 40, (2S, 3S, 4R)-N''-cyano-N-(6 - amino-3,4-dihydro-3-hydroxy-2-methyl-2-dimethoxymethyl-2H-benzopyran-4-yl)-N'-benzylguanidine]
Lipid/Cr [1]: 2.33 | Lipid/NAA [1]: 2.51 | inhibition at 10 µM [2, 5]: 54.9% | inhibition at 10 µM [2, 6]: 63.1% | inhibition at 1 µM [2, 5]: 25.8% | inhibition at 1 µM [2, 6]: 46.1% | inhibition at 0.1 µM [2, 5]: 12% | inhibition at 0.1 µM [2, 6]: 17.6% | Infarction Area Reduction(%) ([3]; Dose 30 mg/kg, compared with the control group): 42.0% | Infarction Area Mean±SD(%) ([3]; Dose 30 mg/kg, peritoneally, 30 min before and 2, 4, 16 hours after occlusion): 23.0% and 23.0 ± 3.3% | side effects ([3]; rat, in vivo, 30 mg/kg): did not suffer from any side effects | MNCV (sec) ([4]; streptozocin diabetic rats): 47.756 | Recovery (%) ([4]; MNCV, diabetic rats): 63.0%
